Our source for the EC50 values is patent publication US9382254B2, “Compounds and pharmaceutical compositions thereof for the treatment of cystic fibrosis” (Galapagos NV, priority 2013, dated 2016).

Holding throughout (format): cell-based
For one test, the target named is T1, CFTR G551D mutant (Homo sapiens, UniProt P13569, G551D).
T1 construct: expressed in transfected cells; host or cells: HEK293 (reverse transfection with plasmid)
The experiment in a line: YFP-halide influx assay for the CFTR-G551D mutation. To be noted: HEK293 cells, forskolin 10.67 μM. In a few lines: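 Channel opening potentiation measured as 1−F/F0, where F is YFP fluorescence 7 s after iodide injection and F0 before; EC50 taken from concentration plot. Cells: HEK293 transiently expressing CFTR G551D plus halide-sensitive YFP (H148Q, I152L, F47L), 24 h at 37 °C, 5% CO2.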

The target in test [1] is T2, CFTR ΔF508 mutant (Homo sapiens, UniProt P13569, DEL508-508).
T2 construct: expressed in transfected cells; host or cells: CFBE41o- (adenoviral transduction)
T2 sequence (P13569 with tags, fused parts or gaps DEL508-508): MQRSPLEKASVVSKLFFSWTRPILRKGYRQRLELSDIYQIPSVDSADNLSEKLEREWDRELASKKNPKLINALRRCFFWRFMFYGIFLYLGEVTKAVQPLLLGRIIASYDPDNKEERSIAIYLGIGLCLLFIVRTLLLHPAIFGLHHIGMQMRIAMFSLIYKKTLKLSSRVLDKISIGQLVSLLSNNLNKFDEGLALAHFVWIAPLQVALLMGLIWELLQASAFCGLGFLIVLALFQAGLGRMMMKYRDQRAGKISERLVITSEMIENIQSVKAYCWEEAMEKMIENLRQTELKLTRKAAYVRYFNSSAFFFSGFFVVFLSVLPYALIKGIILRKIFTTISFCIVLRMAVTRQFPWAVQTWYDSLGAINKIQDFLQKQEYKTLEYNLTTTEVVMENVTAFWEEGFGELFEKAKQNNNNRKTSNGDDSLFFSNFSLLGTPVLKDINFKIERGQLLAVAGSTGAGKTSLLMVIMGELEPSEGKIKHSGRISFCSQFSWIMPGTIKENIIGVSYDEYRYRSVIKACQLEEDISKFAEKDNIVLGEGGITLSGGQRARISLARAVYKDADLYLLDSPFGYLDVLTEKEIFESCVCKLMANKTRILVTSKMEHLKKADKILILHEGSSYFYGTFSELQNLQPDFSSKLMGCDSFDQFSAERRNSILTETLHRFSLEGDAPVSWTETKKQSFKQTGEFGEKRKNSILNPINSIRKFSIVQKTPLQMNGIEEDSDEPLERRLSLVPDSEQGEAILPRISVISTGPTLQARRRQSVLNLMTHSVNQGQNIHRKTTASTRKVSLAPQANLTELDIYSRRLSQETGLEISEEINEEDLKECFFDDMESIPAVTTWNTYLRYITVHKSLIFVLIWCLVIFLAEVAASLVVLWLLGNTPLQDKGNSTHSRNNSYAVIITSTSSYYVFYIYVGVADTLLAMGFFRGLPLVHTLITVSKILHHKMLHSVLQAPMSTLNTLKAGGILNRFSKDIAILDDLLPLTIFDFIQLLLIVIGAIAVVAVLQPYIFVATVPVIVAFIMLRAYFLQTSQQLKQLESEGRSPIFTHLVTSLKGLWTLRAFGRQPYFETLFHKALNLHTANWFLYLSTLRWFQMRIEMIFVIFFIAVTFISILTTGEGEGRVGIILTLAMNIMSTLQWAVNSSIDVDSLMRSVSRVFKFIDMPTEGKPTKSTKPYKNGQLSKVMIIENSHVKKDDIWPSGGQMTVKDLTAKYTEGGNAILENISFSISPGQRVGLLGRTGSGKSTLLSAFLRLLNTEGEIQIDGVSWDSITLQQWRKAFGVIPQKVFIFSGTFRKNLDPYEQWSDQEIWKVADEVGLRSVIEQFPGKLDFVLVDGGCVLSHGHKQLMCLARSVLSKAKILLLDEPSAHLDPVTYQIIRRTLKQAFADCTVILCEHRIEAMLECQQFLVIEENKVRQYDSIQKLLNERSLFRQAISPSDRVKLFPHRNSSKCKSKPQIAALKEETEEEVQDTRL
As to the kind of experiment: YFP-halide influx assay for the CFTR-ΔF508 mutation, PBS buffer (96 well). To be noted: CFBE41o- cells, forskolin 10.67 μM. The source says: The YFP halide influx assay measures the functionality of the cystic fibrosis Transmembrane Conductance regulator (CFTR) channels in the cystic fibrosis bronchial epithelium cell line CFBE41o-. The assay is used to evaluate the capacity of compounds to increase the open probability of existing CFTR channels in the membrane. It makes use of the observation that the yellow fluorescent protein (YFP) variant YFP H148Q, I152L has its fluorescence substantially quenched by halide ions like Cl^− and I^−. (Galietta, Haggie, & Verkman, 2001) (Nagai, et al., 2002)
For this purpose, CFBE41o-cells are seeded in 96 well plates (6000 CFBE cells/well). One day after seeding, the CFBE cells are transduced with adenoviral vectors that direct the expression of the CFTR ΔF508 mutant and of the YFP reporter. Cells are incubated at 27° C., 5% CO2 for 24 hours so as to allow for the proper folding and migration to the membrane of the CFTR channel or treated with a CFTR modulator during 24 hours at 37° C.
The I^− induced quenching of fluorescence is recorded immediately after injection of I^− for 7 seconds. The capacity of a compound to increase the channel opening is directly correlated with the decrease in fluorescence, and is expressed as (1-(fluorescence after 7 seconds (F)/fluorescence before injection (F0))) and an EC50 can be derived from a (1-F/F0) vs compound concentration plot.

Test [2] deals with T2, CFTR ΔF508 mutant. The experiment in a line: YFP-halide influx assay for the CFTR-ΔF508 mutation (384 well, FDSS/μCell). To be noted: CFBE41o- cells, CFTR-ΔF508, 1×D-PBS, fluorescence after 36 seconds. In outline:
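Potentiator read-out as 1−F/F0, F taken 36 s after iodide addition, EC50 fitted against compound concentration. Cells: CFBE41o- expressing ΔF508 CFTR plus halide-sensitive YFP via adenovirus, rescued by 27 °C for 24 h or 24 h modulator at 37 °C.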

pEC50: −log10 of the molar value. A value given as a limit tells only on which side of the number the result lay.

T1 sequence (P13569 whole entry G551D): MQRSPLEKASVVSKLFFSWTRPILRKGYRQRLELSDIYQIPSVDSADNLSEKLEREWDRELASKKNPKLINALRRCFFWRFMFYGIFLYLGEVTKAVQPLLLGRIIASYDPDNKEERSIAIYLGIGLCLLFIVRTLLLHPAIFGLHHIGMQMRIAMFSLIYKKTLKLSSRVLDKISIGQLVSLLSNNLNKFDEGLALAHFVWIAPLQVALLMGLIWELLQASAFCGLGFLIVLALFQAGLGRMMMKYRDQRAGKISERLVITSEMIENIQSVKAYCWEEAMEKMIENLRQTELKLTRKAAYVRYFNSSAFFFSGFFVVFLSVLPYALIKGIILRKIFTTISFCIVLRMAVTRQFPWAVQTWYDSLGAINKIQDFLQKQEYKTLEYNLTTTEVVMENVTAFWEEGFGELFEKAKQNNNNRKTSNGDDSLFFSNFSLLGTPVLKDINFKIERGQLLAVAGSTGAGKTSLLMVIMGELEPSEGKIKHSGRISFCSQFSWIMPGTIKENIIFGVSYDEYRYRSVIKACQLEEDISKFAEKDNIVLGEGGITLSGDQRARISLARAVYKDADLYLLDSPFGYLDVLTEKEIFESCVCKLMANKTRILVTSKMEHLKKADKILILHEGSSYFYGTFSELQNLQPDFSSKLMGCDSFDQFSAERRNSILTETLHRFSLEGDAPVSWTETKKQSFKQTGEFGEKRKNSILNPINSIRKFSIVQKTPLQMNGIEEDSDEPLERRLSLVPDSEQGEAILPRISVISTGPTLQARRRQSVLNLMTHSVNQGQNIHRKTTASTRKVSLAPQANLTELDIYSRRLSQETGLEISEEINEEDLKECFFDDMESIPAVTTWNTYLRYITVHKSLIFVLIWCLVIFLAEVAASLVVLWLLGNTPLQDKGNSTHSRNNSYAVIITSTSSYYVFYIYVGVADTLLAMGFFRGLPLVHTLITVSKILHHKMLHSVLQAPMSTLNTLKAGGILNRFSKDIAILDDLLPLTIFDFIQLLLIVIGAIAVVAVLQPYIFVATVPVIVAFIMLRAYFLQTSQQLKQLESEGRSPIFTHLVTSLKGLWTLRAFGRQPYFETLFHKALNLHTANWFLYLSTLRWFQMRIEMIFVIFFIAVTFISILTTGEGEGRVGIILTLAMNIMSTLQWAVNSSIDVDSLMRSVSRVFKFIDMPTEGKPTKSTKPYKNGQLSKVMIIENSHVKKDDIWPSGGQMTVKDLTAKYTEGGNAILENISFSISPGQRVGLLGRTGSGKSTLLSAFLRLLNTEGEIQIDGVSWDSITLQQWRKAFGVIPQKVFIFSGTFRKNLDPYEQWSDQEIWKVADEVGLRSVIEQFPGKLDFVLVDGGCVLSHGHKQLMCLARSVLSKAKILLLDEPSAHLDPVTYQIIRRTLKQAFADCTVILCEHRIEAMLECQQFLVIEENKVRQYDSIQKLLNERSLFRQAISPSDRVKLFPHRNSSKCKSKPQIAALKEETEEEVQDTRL

As a reminder, the pEC50 is the negative decadic logarithm of the EC50, by convention in mol/L. Regarding `NC(=O)c1cc(S(=O)(=O)c2ccc(Cl)cc2)sc1NC(=O)C1(O)CC1` [Compound 225, 5-(4-chlorophenylsulfonyl)-2-(1-hydroxycyclopropanecarboxamido) thiophene-3-carboxamide], the results for the pEC50 on CFTR G551D mutant, at CFTR ΔF508 mutant [1] and on CFTR ΔF508 mutant [2] were 6.53, 7.44 and 7.58, respectively.

`NC(=O)c1cc(S(=O)(=O)c2cccc(F)c2)sc1NC(=O)C1(O)CC1` [Compound 227, 5-(3-fluorophenylsulfonyl)-2-(1-hydroxycyclopropanecarboxamido) thiophene-3-carboxamide]: the figures for the pEC50 on CFTR G551D mutant, at CFTR ΔF508 mutant [1] and on CFTR ΔF508 mutant [2] were 6.33, 7.38 and 7.41, respectively.

On to `CC(C)c1ccccc1S(=O)(=O)c1cc(C(N)=O)c(NC(=O)C2(O)CC2)s1` [Compound 228, 2-(1-hydroxycyclopropanecarboxamido)-5-(2-isopropylphenylsulfonyl) thiophene-3-carboxamide], for which the pEC50 on CFTR G551D mutant was 7.03; at CFTR ΔF508 mutant [1], 7.69; on CFTR ΔF508 mutant [2], 7.54.

Regarding `CN(Cc1ccc(F)cc1)S(=O)(=O)c1cc(C(N)=O)c(NC(=O)C2(O)CC2)s1` [Compound 231, 5-(N-(4-fluorobenzyl)-N-methylsulfamoyl)-2-(1-hydroxycyclopropanecarboxamido) thiophene-3-carboxamide], the pEC50 at CFTR G551D mutant was 6.17; at CFTR ΔF508 mutant [1] it was 7.59; on CFTR ΔF508 mutant [2], 7.50.

For the molecule `CN(c1ccc(F)cc1)S(=O)(=O)c1cc(C(N)=O)c(NC(=O)C2(O)CC2)s1` [Compound 236, 5-(N-(4-fluorophenyl)-N-methylsulfamoyl)-2-(1-hydroxycyclopropanecarboxamido) thiophene-3-carboxamide], the pEC50 at CFTR G551D mutant was 5.18; at CFTR ΔF508 mutant [1], 7.33; at CFTR ΔF508 mutant [2] it was 7.60.

Regarding `NC(=O)c1cc(S(=O)(=O)N2CCOc3ccccc32)sc1NC(=O)C1(O)CC1` [Compound 242, 5-(2H-benzo[b][1,4]oxazin-4(3H)-ylsulfonyl)-2-(1-hydroxycyclopropanecarboxamido) thiophene-3-carboxamide], the pEC50 is 6.79 at CFTR G551D mutant, 7.76 on CFTR ΔF508 mutant [1] and 8.02 on CFTR ΔF508 mutant [2].

As for `COc1ccc(S(=O)(=O)c2cc(C(N)=O)c(NC(=O)C3(O)CC3)s2)cc1` [Compound 245, 2-(1-hydroxycyclopropanecarboxamido)-5-(4-methoxyphenylsulfonyl) thiophene-3-carboxamide], the pEC50 on CFTR G551D mutant is 6.21; at CFTR ΔF508 mutant [1] it was 7.22; at CFTR ΔF508 mutant [2], 6.95.

`COc1ccc(OC)c(S(=O)(=O)c2cc(C(N)=O)c(NC(=O)C3(O)CC3)s2)c1` [Compound 246, 5-(2,5-dimethoxyphenylsulfonyl)-2-(1-hydroxycyclopropanecarboxamido) thiophene-3-carboxamide]: the figures for the pEC50 at CFTR G551D mutant, on CFTR ΔF508 mutant [1] and on CFTR ΔF508 mutant [2] were 6.20, 7.11 and 7.12, respectively.

On to `NC(=O)c1cc(S(=O)(=O)c2c(Cl)cccc2Cl)sc1NC(=O)C1(O)CC1` [Compound 247, 5-(2,6-dichlorophenylsulfonyl)-2-(1-hydroxycyclopropanecarboxamido) thiophene-3-carboxamide], for which the pEC50 was 6.95 on CFTR G551D mutant, 7.97 on CFTR ΔF508 mutant [1] and 7.73 on CFTR ΔF508 mutant [2].

`CC(O)C(=O)Nc1sc(S(=O)(=O)c2ccc(F)cc2)cc1C(N)=O` (centres unmarked) [Compound 248, 5-(4-fluorophenylsulfonyl)-2-(2-hydroxypropanamido) thiophene-3-carboxamide]: the pEC50 on CFTR G551D mutant was 5.86; on CFTR ΔF508 mutant [1], 7.07; on CFTR ΔF508 mutant [2] it was 7.15.

On to `Cc1cccc(C)c1S(=O)(=O)c1cc(C(N)=O)c(NC(=O)C2(O)CC2)s1` [Compound 251, 5-(2,6-dimethylphenylsulfonyl)-2-(1-hydroxycyclopropanecarboxamido) thiophene-3-carboxamide], for which the pEC50 on CFTR G551D mutant is 5.90; at CFTR ΔF508 mutant [1] it was 7.68; at CFTR ΔF508 mutant [2] it was 7.33.

Take `CC(C)(CO)C(=O)Nc1sc(S(=O)(=O)c2ccc(F)cc2)cc1C(N)=O` [Compound 253, 5-(4-fluorophenylsulfonyl)-2-(3-hydroxy-2,2-dimethylpropanamido) thiophene-3-carboxamide]: the pEC50 at CFTR G551D mutant was 5.48; at CFTR ΔF508 mutant [1], 7.14; at CFTR ΔF508 mutant [2] it was 7.29.

Consider `NC(=O)c1cc(S(=O)(=O)c2ccc(F)cc2F)sc1NC(=O)C1(O)CC1` [Compound 256, 5-(2,4-difluorophenylsulfonyl)-2-(1-hydroxycyclopropanecarboxamido) thiophene-3-carboxamide], for which the results for the pEC50 at CFTR G551D mutant, on CFTR ΔF508 mutant [1] and on CFTR ΔF508 mutant [2] were 5.75, 7.58 and 7.64, respectively.

With `NC(=O)c1cc(S(=O)(=O)c2ccccc2C(F)(F)F)sc1NC(=O)C1(O)CC1` [Compound 257, 2-(1-hydroxycyclopropanecarboxamido)-5-(2-(trifluoromethyl)phenylsulfonyl) thiophene-3-carboxamide], the pEC50 at CFTR G551D mutant was 6.48; on CFTR ΔF508 mutant [1] it was 7.79; at CFTR ΔF508 mutant [2], 7.58.

Consider `CC1CN(S(=O)(=O)c2cc(C(N)=O)c(NC(=O)c3ccccc3C(F)(F)F)s2)C(C)(C)CO1` (centres unmarked) [Compound 263, 2-(2-(trifluoromethyl)benzamido)-5-(2,5,5-trimethylmorpholinosulfonyl) thiophene-3-carboxamide], for which the pEC50 on CFTR G551D mutant was 5.48; on CFTR ΔF508 mutant [1], 7.09; at CFTR ΔF508 mutant [2], 6.83.

Regarding `NC(=O)c1cc(S(=O)(=O)c2ccc(F)cc2Br)sc1NC(=O)C1(O)CC1` [Compound 264, 5-(2-bromo-4-fluorophenylsulfonyl)-2-(1-hydroxycyclopropanecarboxamido) thiophene-3-carboxamide], the values for the negative logarithm of the EC50 (pEC50) on CFTR G551D mutant, at CFTR ΔF508 mutant [1] and on CFTR ΔF508 mutant [2] were 5.99, 7.52 and 7.71, respectively.

Turning to `CC(C)Oc1cccc(S(=O)(=O)c2cc(C(N)=O)c(NC(=O)C(C)(C)O)s2)c1` [Compound 265, 2-(2-hydroxy-2-methylpropanamido)-5-(3-isopropoxyphenylsulfonyl) thiophene-3-carboxamide], the figures for the pEC50 on CFTR G551D mutant, on CFTR ΔF508 mutant [1] and on CFTR ΔF508 mutant [2] were 5.70, 7.37 and 7.04, respectively.

For `CC(C)(O)C(=O)Nc1sc(S(=O)(=O)c2cc(F)ccc2O)cc1C(N)=O` [Compound 296, 5-(5-fluoro-2-hydroxyphenylsulfonyl)-2-(2-hydroxy-2-methylpropanamido) thiophene-3-carboxamide], the pEC50 was less than 6.00 on CFTR G551D mutant (class symbol) and 6.14 at CFTR ΔF508 mutant [1].

For the molecule `Cc1ccc(S(=O)(=O)c2cc(C(N)=O)c(NC(=O)C(C)(C)O)s2)cn1` [Compound 297, 2-(2-Hydroxy-2-methyl-propionylamino)-5-(6-methyl-pyridine-3-sulfonyl)-thiophene-3-carboxylic acid amide], the pEC50 at CFTR G551D mutant was 5.48; on CFTR ΔF508 mutant [1], 6.44.

Take `Cc1cc(S(=O)(=O)c2cc(C(N)=O)c(NC(=O)C(C)(C)O)s2)ccn1` [Compound 299, 2-(2-Hydroxy-2-methyl-propionylamino)-5-(2-methyl-pyridine-4-sulfonyl)-thiophene-3-carboxylic acid amide]: the pEC50 was 5.48 at CFTR G551D mutant and 6.04 on CFTR ΔF508 mutant [1].

In the case of `COc1ccccc1S(=O)(=O)c1cc(C(N)=O)c(NC(=O)C(C)(C)O)s1` [Compound 301, 2-(2-hydroxy-2-methylpropanamido)-5-(2-methoxyphenylsulfonyl) thiophene-3-carboxamide], the figures for the pEC50 on CFTR G551D mutant (class symbol) and at CFTR ΔF508 mutant [1] were less than 6.00 and 6.76, respectively.

With `COCCN(C1CC1)S(=O)(=O)c1cc(C(N)=O)c(NC(=O)C(C)(C)O)s1` [Compound 306, 5-(N-cyclopropyl-N-(2-methoxyethyl)sulfamoyl)-2-(2-hydroxy-2-methylpropanamido) thiophene-3-carboxamide], the pEC50 on CFTR G551D mutant (class symbol) was less than 6.00; at CFTR ΔF508 mutant [1], 6.59.

On to `CC(C)(O)C(=O)Nc1sc(S(=O)(=O)N2CCC(F)(F)CC2)cc1C(N)=O` [Compound 308, 5-(4,4-difluoropiperidin-1-ylsulfonyl)-2-(2-hydroxy-2-methylpropanamido) thiophene-3-carboxamide], for which the pEC50 at CFTR G551D mutant was 5.99; at CFTR ΔF508 mutant [1] it was 6.63.

Consider `CC1(C)CN(S(=O)(=O)c2cc(C(N)=O)c(NC(=O)C(C)(C)O)s2)C1` [Compound 309, 5-(3,3-Dimethyl-azetidine-1-sulfonyl)-2-(2-hydroxy-2-methyl-propionylamino)-thiophene-3-carboxylic acid amide], for which the pEC50 on CFTR G551D mutant is 5.54; at CFTR ΔF508 mutant [1], 6.94.
